Reference: paper PMC10387993, “New pyrimidine-N-β-D-glucosides: synthesis, biological evaluation, and molecular docking investigations” (Turkish Journal of Chemistry, 2023)
Values after ≈ are worked out from the molar mass of the structure shown.

Assays:
Type in all cases: cell-based
C6 (Rat brain glioma) = experiment: cells; settings: Rattus norvegicus; for LC50 (concentration giving 50% net cell loss relative to time zero): read-out: LC50; for GI50 / IC50 / IC (total growth inhibition): C6, MTT; for IC50: read-out: IC50; for IC (total growth inhibition): read-out: TGI
In short: (§1)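 In this MTT proliferation screen, formazan formed over 4 h was read at 560 nm against a 690 nm reference. Each line was tested at least three times, and the IC50 was taken as the concentration inhibiting half of the cells.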

HT29 = experiment: cells; settings: Homo sapiens; for LC50 (concentration giving 50% net cell loss relative to time zero): HT-29, read-out: LC50; for GI50 / IC50 / IC (total growth inhibition): HT-29, HT29, MTT; for IC50: read-out: IC50; for IC (total growth inhibition): read-out: TGI
In short: as §1

A549 = experiment: cells; settings: Homo sapiens; for LC50 (concentration causing 50% net cell loss): A549, read-out: LC50; for GI50 / IC50 / IC (total growth inhibition): A549, MTT; for IC50: read-out: IC50; for IC (total growth inhibition): read-out: TGI
In short: as §1

HeLa = experiment: cells; settings: Homo sapiens; for GI50 / IC50 / IC (total growth inhibition): MTT; for IC50: read-out: IC50; for IC (total growth inhibition): read-out: TGI; for LC50 (concentration causing 50% net cell loss): read-out: LC50
In short: as §1

Hep3B = experiment: cells; settings: Homo sapiens; for GI50 / IC50 / IC (total growth inhibition): MTT; for IC50: read-out: IC50; for IC (total growth inhibition): read-out: TGI; for LC50 (concentration causing 50% net cell loss relative to time zero): read-out: LC50
In short: as §1

[1] = LDH cytotoxic activity assay, FL; settings: human, FL cells (normal cells)
Protocol: (§2) The cell lines were cultured in a cell medium (Dulbecco’s modified eagle’s or RPMI 1640) enriched with 10% (v/v) fetal bovine serum and 2% (v/v) Penicillin-Streptomycin (10,000 U/mL). First, old medium was removed out of the flask when the cells reached approximately 80% confluence. Next, cells were taken from the flasks surface using trypsin-EDTA solution and then subjected to centrifugation. Following, the cell pellet was suspended with fresh media and was inoculated into wells.
(§3) Approximately 5 × 10^3 cells in 100 μL were placed into 96-well plates as triplicates and treated with 25, 50, 75, and 100 μg/mL concentrations of test compounds at 37 °C with 5% CO2 for 24 h. LDH activity was obtained by determining absorbance at 492–630 nm using a microplate reader.

[2] = LDH cytotoxic activity assay, A549; settings: human, A549 cells; for cytotoxicity at 24 h, 25 μg/mL: A549, 25 μg/mL; for cytotoxicity at 24 h, 50 μg/mL: A549, 50 μg/mL; for cytotoxicity at 24 h, 75 μg/mL: A549, 75 μg/mL; for cytotoxicity at 24 h, 100 μg/mL: A549, 100 μg/mL
Protocol: as §2, §3

[3] = LDH cytotoxic activity assay, Hep3B; settings: human, Hep3B cells
Protocol: as §2, §3

[4] = LDH cytotoxic activity assay, MCF7; settings: human, MCF7 cells; for cytotoxicity at 24 h, 25 μg/mL: MCF7, 25 μg/mL; for cytotoxicity at 24 h, 50 μg/mL: MCF7, 50 μg/mL; for cytotoxicity at 24 h, 75 μg/mL: MCF7, 75 μg/mL
Protocol: as §2, §3

[5] = as the column head prints, head prints FL

Compound | LC50 (concentration giving 50% net cell loss relative to time zero) (C6 (Rat brain glioma)) | GI50 (C6 (Rat brain glioma)) | IC50 (C6 (Rat brain glioma)) | IC (total growth inhibition) (C6 (Rat brain glioma)) | LC50 (concentration giving 50% net cell loss relative to time zero) (HT29) | GI50 (HT29) | IC50 (HT29) | IC (total growth inhibition) (HT29) | LC50 (concentration causing 50% net cell loss) (A549) | GI50 (A549) | IC50 (A549) | IC (total growth inhibition) (A549) | GI50 (HeLa) | IC50 (HeLa) | IC (total growth inhibition) (HeLa) | LC50 (concentration causing 50% net cell loss) (HeLa) | GI50 (Hep3B) | IC50 (Hep3B) | IC (total growth inhibition) (Hep3B) | LC50 (concentration causing 50% net cell loss relative to time zero) (Hep3B) | also measured
Cc1cccc(-c2cc(-c3ccncc3)nc(N[C@@H]3O[C@H](CO)[C@@H](O)[C@H](O)[C@H]3O)n2)c1 [Compound 6, N-[4-(3-methylphenyl)-6-pyridin-4-ylpyrimidin-2-yl]-β-D-glucopyranosylamine] | > 500 µg/mL | > 500 µg/mL | > 500 µg/mL | > 500 µg/mL | > 500 µg/mL | 4.29 µg/mL (≈ 10.1 µM) | > 500 µg/mL | > 500 µg/mL | > 500 µg/mL | 192 µg/mL (≈ 453 µM) | > 500 µg/mL | > 500 µg/mL | > 500 µg/mL | > 500 µg/mL | > 500 µg/mL | > 500 µg/mL | 4.07 µg/mL (≈ 9.59 µM) | > 500 µg/mL | > 500 µg/mL | > 500 µg/mL | cytotoxicity at 24 h, 25 μg/mL ([1]; FL): 19.1%; cytotoxicity at 24 h, 50 μg/mL ([1]; FL): 27.6%; cytotoxicity at 24 h, 75 μg/mL ([1]; FL): 50.9%; cytotoxicity at 24 h, 100 μg/mL ([1]; FL): 63.4%; cytotoxicity at 24 h, 100 μg/mL [1, 5]: 41.9%; cytotoxicity at 24 h, 25 μg/mL [2]: 27%; cytotoxicity at 24 h, 50 μg/mL [2]: 32%; cytotoxicity at 24 h, 75 μg/mL [2]: 48.1%; cytotoxicity at 24 h, 100 μg/mL [2]: 72.8%; cytotoxicity at 24 h, 25 μg/mL [3]: 10%; cytotoxicity at 24 h, 50 μg/mL [3]: 15.4%; cytotoxicity at 24 h, 75 μg/mL [3]: 35.9%; cytotoxicity at 24 h, 100 μg/mL [3]: 41.1%; cytotoxicity at 24 h, 25 μg/mL [4]: 7.22%; cytotoxicity at 24 h, 50 μg/mL [4]: 12.5%; cytotoxicity at 24 h, 75 μg/mL [4]: 31.8%
Cc1ccc(-c2cc(-c3ccccn3)nc(N[C@@H]3O[C@H](CO)[C@@H](O)[C@H](O)[C@H]3O)n2)cc1 [Compound 7, N-[4-(4-methylphenyl)-6-pyridin-2-ylpyrimidin-2-yl]-β-D-glucopyranosylamine] | 88.3 µg/mL (≈ 208 µM) | 8.15 µg/mL (≈ 19.2 µM) | 29.3 µg/mL (≈ 69 µM) | 21.5 µg/mL | > 500 µg/mL | 2.5 µg/mL (≈ 5.89 µM) | 29.9 µg/mL (≈ 70.5 µM) | 49.2 µg/mL | > 500 µg/mL | 125 µg/mL (≈ 295 µM) | > 500 µg/mL | > 500 µg/mL | 7.17 µg/mL (≈ 16.9 µM) | 31.9 µg/mL (≈ 75 µM) | 21.6 µg/mL | 120 µg/mL (≈ 284 µM) | 4.26 µg/mL (≈ 10 µM) | 183 µg/mL (≈ 430 µM) | 194 µg/mL | > 500 µg/mL | cytotoxicity at 24 h, 25 μg/mL ([1]; FL): 18.1%; cytotoxicity at 24 h, 50 μg/mL ([1]; FL): 30.5%; cytotoxicity at 24 h, 75 μg/mL ([1]; FL): 46.5%; cytotoxicity at 24 h, 100 μg/mL ([1]; FL): 73.2%; cytotoxicity at 24 h, 100 μg/mL [1, 5]: 40.7%; cytotoxicity at 24 h, 25 μg/mL [2]: 24.3%; cytotoxicity at 24 h, 50 μg/mL [2]: 24.4%; cytotoxicity at 24 h, 75 μg/mL [2]: 27.4%; cytotoxicity at 24 h, 100 μg/mL [2]: 40.6%; cytotoxicity at 24 h, 25 μg/mL [3]: 9.37%; cytotoxicity at 24 h, 50 μg/mL [3]: 17%; cytotoxicity at 24 h, 75 μg/mL [3]: 34.3%; cytotoxicity at 24 h, 100 μg/mL [3]: 44.5%; cytotoxicity at 24 h, 25 μg/mL [4]: 4.05%; cytotoxicity at 24 h, 50 μg/mL [4]: 20.1%; cytotoxicity at 24 h, 75 μg/mL [4]: 26.6%
Cc1ccc(-c2cc(-c3cccnc3)nc(N[C@@H]3O[C@H](CO)[C@@H](O)[C@H](O)[C@H]3O)n2)cc1 [Compound 8, N-[4-(4-methylphenyl)-6-pyridin-3-ylpyrimidin-2-yl]-β-D-glucopyranosylamine] | 225 µg/mL (≈ 530 µM) | 8.71 µg/mL (≈ 20.5 µM) | 49 µg/mL (≈ 115 µM) | 30.7 µg/mL | > 500 µg/mL | 4.43 µg/mL (≈ 10.4 µM) | 42.5 µg/mL (≈ 100 µM) | 60 µg/mL | > 500 µg/mL | > 500 µg/mL | > 500 µg/mL | > 500 µg/mL | 14.1 µg/mL (≈ 33.2 µM) | 81.3 µg/mL (≈ 191 µM) | 50.1 µg/mL | 325 µg/mL (≈ 766 µM) | 6.38 µg/mL (≈ 15 µM) | > 500 µg/mL | > 500 µg/mL | > 500 µg/mL | cytotoxicity at 24 h, 25 μg/mL ([1]; FL): 20.8%; cytotoxicity at 24 h, 50 μg/mL ([1]; FL): 34.1%; cytotoxicity at 24 h, 75 μg/mL ([1]; FL): 41%; cytotoxicity at 24 h, 100 μg/mL ([1]; FL): 69.9%; cytotoxicity at 24 h, 100 μg/mL [1, 5]: 43.5%; cytotoxicity at 24 h, 25 μg/mL [2]: 28.1%; cytotoxicity at 24 h, 50 μg/mL [2]: 26%; cytotoxicity at 24 h, 75 μg/mL [2]: 47.4%; cytotoxicity at 24 h, 100 μg/mL [2]: 58.1%; cytotoxicity at 24 h, 25 μg/mL [3]: 15.6%; cytotoxicity at 24 h, 50 μg/mL [3]: 20.5%; cytotoxicity at 24 h, 75 μg/mL [3]: 36.2%; cytotoxicity at 24 h, 100 μg/mL [3]: 52.9%; cytotoxicity at 24 h, 25 μg/mL [4]: 10%; cytotoxicity at 24 h, 50 μg/mL [4]: 20.1%; cytotoxicity at 24 h, 75 μg/mL [4]: 32.8%
Cc1ccc(-c2cc(-c3ccncc3)nc(N[C@@H]3O[C@H](CO)[C@@H](O)[C@H](O)[C@H]3O)n2)cc1 [Compound 9, N-[4-(4-methylphenyl)-6-pyridin-4-ylpyrimidin-2-yl]-β-D-glucopyranosylamine] | > 500 µg/mL | > 500 µg/mL | > 500 µg/mL | > 500 µg/mL | > 500 µg/mL | 4.3 µg/mL (≈ 10.1 µM) | > 500 µg/mL | > 500 µg/mL | > 500 µg/mL | > 500 µg/mL | > 500 µg/mL | > 500 µg/mL | > 500 µg/mL | > 500 µg/mL | > 500 µg/mL | > 500 µg/mL | 4.61 µg/mL (≈ 10.9 µM) | > 500 µg/mL | > 500 µg/mL | > 500 µg/mL | cytotoxicity at 24 h, 25 μg/mL ([1]; FL): 18.6%; cytotoxicity at 24 h, 50 μg/mL ([1]; FL): 30%; cytotoxicity at 24 h, 75 μg/mL ([1]; FL): 60.6%; cytotoxicity at 24 h, 100 μg/mL ([1]; FL): 71%; cytotoxicity at 24 h, 100 μg/mL [1, 5]: 36.5%; cytotoxicity at 24 h, 25 μg/mL [2]: 27.4%; cytotoxicity at 24 h, 50 μg/mL [2]: 28.5%; cytotoxicity at 24 h, 75 μg/mL [2]: 48.4%; cytotoxicity at 24 h, 100 μg/mL [2]: 63.2%; cytotoxicity at 24 h, 25 μg/mL [3]: 16.5%; cytotoxicity at 24 h, 50 μg/mL [3]: 24.4%; cytotoxicity at 24 h, 75 μg/mL [3]: 41.5%; cytotoxicity at 24 h, 100 μg/mL [3]: 49.4%; cytotoxicity at 24 h, 25 μg/mL [4]: 11.1%; cytotoxicity at 24 h, 50 μg/mL [4]: 19.2%; cytotoxicity at 24 h, 75 μg/mL [4]: 27.5%
